pIC50: −log10 of the molar value. Values joined by “and” are separate entries in the source; they are usually repeats but may differ in a detail not shown here. Equal entries are not always repeated. Each block holds one compound with its values, some of them ahead of it.
Tested on: 282377-053-R-J1-PDC complex spheroids, viability
Assay: Anticancer human tumor 282377-053-R-J1-PDC patient-derived colon adenocarcinoma cell line growth inhibition [GQUAD]
Conditions: for viability, T/C: stronger effect = lower value
Description: DNA G-quadruplex Stabilizer Agents in Combinations in Complex Spheroids
A high-throughput screen of multi-cell type tumor spheroids was designed to identify active combinations of DNA G-quadruplex stabilizer agents and targeted small molecules. Complex spheroids include a stromal component modeled by human endothelial cells (HUVEC) and fibroblasts modeled by human mesenchymal stem cells (MSCs). The concentration ranges selected for each drug and investigational agent were based upon clinically achievable concentrations if the clinical Cmax of the agent was known.
Compounds. The drugs and investigational agents: pidnarulex (CX-5461; NSC782164), APTO-253 (NSC789042), BRACO-19 (NSC847499), peposertib (NSC802822), ceralasertib (NSC780249), elimusertib (NSC800525), camonsertib (NSC841442), AZD-1390 (NSC803789), olaparib (NSC753686), talazoparib (NSC767125), ART-558 (NSC835418), sotorasib (NSC818433), MRTX-1133 (NSC836407), SN-38 (NSC673596), topotecan (NSC609699), etoposide (NSC141540), doxorubicin (NSC123127), gemcitabine (NSC613327), 5-fluorouracil (NSC19893), paclitaxel (NSC125973), vemurafenib (NSC761431), panobinostat (NSC761190), R-306465 (JNJ-16241199; NSC773264), adavosertib (NSC754352), TP-3654 (NSC805149), carboplatin (NSC241240), KSQ-4279 (NSC840948), and staurosporine (NSC755774) were obtained from the National Cancer Institute (NCI) Developmental Therapeutics Program Chemical Repository (34). The FDA-approved anticancer drug set is available from the NCI Developmental Therapeutics Program. […] The stock solutions were prepared in dimethyl sulfoxide (DMSO, Sigma-Aldrich, St. Louis, MO, cat. D2650) at 800-fold the tested concentration and stored at -70 degrees C prior to their use. All drugs and investigational agents were tested over a range starting from a high concentration at or near the clinical Cmax and decreasing in half-log increments. If the clinical Cmax for an agent had not been determined, the highest concentration tested was 10 microM.
2.3 Cell Culture. All cells were maintained in an incubator at 37 degrees C and 5% CO2 with 95% humidity. The PDC lines were cultured according to standard operating procedures established by the NCI PDMR. All PDCs were thawed and cultured in Matrigel-coated flasks prepared with a working solution of 1X Ham's F-12 nutrient mix, without supplementation (Invitrogen, cat. 11765054), 100 U/mL penicillin-streptomycin (Invitrogen, cat. 15140122), and 2.5% Matrigel (Corning Inc., cat. 354248) for the first three passages. The 857933-349-R-J2-PDC line was cultured in 6C/Colon 1B media, which includes advanced DMEM/F-12 (Thermo Fisher Scientific, cat. 12634028), 10 mM HEPES (Thermo Fisher Scientific, cat. 15630080), 1X GlutaMAX supplement (Thermo Fisher Scientific, cat. 35050061), 0.1 mg/mL primocin (InvivoGen, cat. ant-pm-2), 10% defined fetal bovine serum, heat inactivated (HyClone Laboratories Inc., cat. SH30070.03HI), 50% L-WRN conditioned media (ATCC, cat. CRL-3276), 1.25 mM N-Acetyl-L-cysteine (Sigma-Aldrich, cat. A9165), 10 mM nicotinamide (Sigma-Aldrich, cat. N0636), 1X B-27 supplement (Thermo Fisher Scientific, cat. 17504044), 1X N-2 supplement (Thermo Fisher Scientific, cat. 17502048), 10 microM Y-27632 dihydrochloride (Tocris Bioscience, cat. 1254), and 50 ng/mL human EGF recombinant protein (Thermo Fisher Scientific, cat. PHG0311). The 485176-168-R4-J1-PDC line was cultured in Panc media, which includes all 6C/Colon 1B media components plus 100 ng/mL human FGF-10 (Thermo Fisher Scientific, cat. 100-26), 500 nM SB-431542 (Selleckchem, cat. S1067), and gastrin (Tocris, cat. 3006).
[…]

[1] = compound alone, run of 04/22/2024
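Also: spheroids exposed to compounds for 7 days before readout.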
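For viability, T/C in this document: percent of vehicle DMSO control viability with 100% = untreated-like growth.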

- pIC50 (curve of compound): < 5.00
SMILES: C=CC(=O)N1CCN(c2nc(=O)n(-c3c(C)ccnc3C(C)C)c3nc(-c4c(O)cccc4F)c(F)cc23)C(C)C1 (stereo not given)
- viability, T/C (compound 0.0316 µM): 114% and 108% and 103%
- viability, T/C (compound 0.1 µM): 92.4% and 90.8% and 92.9%
- viability, T/C (compound 0.316 µM): 104% and 91.5% and 93.6%
- viability, T/C (compound 1 µM): 91.5% and 93.8% and 96.1%
- viability, T/C (compound 3.16 µM): 105% and 95.6% and 103%
- viability, T/C (compound 10 µM): 97.3% and 80.3% and 106%

- pIC50 (curve of compound): 5.95 and 5.71 and 6.00
SMILES: COc1cccc2c1C(=O)c1c(O)c3c(c(O)c1C2=O)CC(O)(C(=O)CO)CC3OC1CC(N)C(O)C(C)O1 (stereo not given)
- viability, T/C (compound 0.0316 µM): 109% and 108% and 110%
- viability, T/C (compound 0.1 µM): 110% and 102% and 101%
- viability, T/C (compound 0.316 µM): 92.8% and 109% and 77.7%
- viability, T/C (compound 1 µM): 54.2% and 77.3% and 56%
- viability, T/C (compound 3.16 µM): 15.7% and 29.5% and 13.9%
- viability, T/C (compound 10 µM): 1.35% and 2.21% and 0.95%

- pIC50 (compound alone, run of 04/16/2024): < 5.00 and 5.08 and 5.09
- pIC50 [1]: < 5.00 and 5.04 and 5.13
SMILES: Cc1[nH]c2ccc(F)cc2c1-c1nc2c3cccnc3c3ncccc3c2[nH]1
- viability, T/C (compound 0.0316 µM): 91.7% [middle of 12 runs]

Continued, compound first:

SMILES: O=C(NO)c1cnc(N2CCN(S(=O)(=O)c3ccc4ccccc4c3)CC2)nc1 + CN(C)c1ccc(Nc2c3ccc(NC(=O)CCN4CCCC4)cc3nc3cc(NC(=O)CCN4CCCC4)ccc23)cc1
- pIC50 (curve of first compound, second compound 0.0316 µM): 6.29
- pIC50 (curve of first compound, second compound 0.1 µM): 6.29
- pIC50 (curve of first compound, second compound 0.316 µM): 6.27
- pIC50 (curve of first compound, second compound 1 µM): 6.29
- pIC50 (curve of first compound, second compound 3.16 µM): 6.24
- pIC50 (curve of first compound, second compound 10 µM): 6.33
- viability, T/C (second compound 0.0316 µM, first compound 0.0316 µM): 107%
- viability, T/C (second compound 0.0316 µM, first compound 0.1 µM): 128%
- viability, T/C (second compound 0.0316 µM, first compound 0.316 µM): 86.8%
- viability, T/C (second compound 0.0316 µM, first compound 1 µM): 2.18%
- viability, T/C (second compound 0.0316 µM, first compound 3.16 µM): 0.16%
- viability, T/C (second compound 0.0316 µM, first compound 10 µM): 0.17%
- viability, T/C (second compound 0.1 µM, first compound 0.0316 µM): 110%
- viability, T/C (second compound 0.1 µM, first compound 0.1 µM): 93.4%
- viability, T/C (second compound 0.1 µM, first compound 0.316 µM): 83.6%
- viability, T/C (second compound 0.1 µM, first compound 1 µM): 3.12%
- viability, T/C (second compound 0.1 µM, first compound 3.16 µM): 0.11%
- viability, T/C (second compound 0.1 µM, first compound 10 µM): 0.12%
- viability, T/C (second compound 0.316 µM, first compound 0.0316 µM): 111%
- viability, T/C (second compound 0.316 µM, first compound 0.1 µM): 101%
- viability, T/C (second compound 0.316 µM, first compound 0.316 µM): 90.6%
- viability, T/C (second compound 0.316 µM, first compound 1 µM): 2.03%
- viability, T/C (second compound 0.316 µM, first compound 3.16 µM): 0.1%
- viability, T/C (second compound 0.316 µM, first compound 10 µM): 0.11%
- viability, T/C (second compound 1 µM, first compound 0.0316 µM): 103%
- viability, T/C (second compound 1 µM, first compound 0.1 µM): 120%
- viability, T/C (second compound 1 µM, first compound 0.316 µM): 84%
- viability, T/C (second compound 1 µM, first compound 1 µM): 2.22%
- viability, T/C (second compound 1 µM, first compound 3.16 µM): 0.08%
- viability, T/C (second compound 1 µM, first compound 10 µM): 0.11%
- viability, T/C (second compound 3.16 µM, first compound 0.0316 µM): 113%
- viability, T/C (second compound 3.16 µM, first compound 0.1 µM): 92.1%
- viability, T/C (second compound 3.16 µM, first compound 0.316 µM): 106%
- viability, T/C (second compound 3.16 µM, first compound 1 µM): 1.28%
- viability, T/C (second compound 3.16 µM, first compound 3.16 µM): 0.14%
- viability, T/C (second compound 3.16 µM, first compound 10 µM): 0.13%
- viability, T/C (second compound 10 µM, first compound 0.0316 µM): 93%
- viability, T/C (second compound 10 µM, first compound 0.1 µM): 87.8%
- viability, T/C (second compound 10 µM, first compound 0.316 µM): 73.1%
- viability, T/C (second compound 10 µM, first compound 1 µM): 3.72%
- viability, T/C (second compound 10 µM, first compound 3.16 µM): 0.18%
- viability, T/C (second compound 10 µM, first compound 10 µM): 0.17%

SMILES: CN(C)c1ccc(Nc2c3ccc(NC(=O)CCN4CCCC4)cc3nc3cc(NC(=O)CCN4CCCC4)ccc23)cc1
- viability, T/C (compound 0.1 µM): 96.9% [middle of 12 runs]
- viability, T/C (compound 3.16 µM): 99.2% [middle of 12 runs]
- pIC50 [1]: < 5.00

SMILES: Cc1cnc(CNC(=O)c2c(=O)c3ccc(N4CCCN(C)CC4)nc3n3c2sc2ccccc23)cn1
- viability, T/C (compound 1 µM): 64.5% [middle of 12 runs]
- viability, T/C (compound 3.16 µM): 57.2% [middle of 12 runs]
- viability, T/C (compound 10 µM): 55.2% [middle of 12 runs]

Source: PubChem BioAssay AID2060501 (Molecular Pharmacology Branch, DTP, NCI, 2025)
